In this series the test system is human PKK mRNA. Put plainly: Antisense inhibition of human PKK mRNA in HepaRG cells, 3,000 nM (Example 1). Format: cell-based. Conditions: relative to untreated control cells. As for the experimental part:
Antisense oligonucleotides were designed targeting a PKK nucleic acid and were tested for their effects on PKK mRNA in vitro. HepaRG™ cells, which are terminally differentiated hepatic cells derived from a human hepatic progenitor cell line and retain many characteristics of primary human hepatocytes (Lubberstedt M. et al., J. Pharmacol. Toxicol. Methods 2011 63: 59-68), were used in the screen.
The chimeric antisense oligonucleotides in the tables below were designed as 5-10-5 MOE gapmers. The gapmers are 20 nucleosides in length, wherein the central gap segment comprises of ten 2′-deoxynucleosides and is flanked by wing segments on the 5′ direction and the 3′ direction comprising five nucleosides each. Each nucleoside in the 5′ wing segment and each nucleoside in the 3′ wing segment has a 2′-O-methoxyethyl modification. The internucleoside linkages throughout each gapmer are phosphorothioate linkages. All cytosine residues throughout each gapmer are 5-methylcytosines. “Start site” indicates the 5′-most nucleoside to which the gapmer is targeted in the human gene sequence. “Stop site” indicates the 3′-most nucleoside to which the gapmer is targeted in the human gene sequence.
Cultured HepaRG™ cells at a density of 20,000 cells per well were transfected using electroporation with 3,000 nM antisense oligonucleotide. After a treatment period of approximately 24 hours, RNA was isolated from the cells and PKK mRNA levels were measured by quantitative real-time PCR. Human primer probe set RTS3454 (forward sequence […], designated herein as SEQ ID NO: 20; reverse sequence […], designated herein as SEQ ID NO: 21; probe sequence […], designated herein as SEQ ID NO: 22) was used to measure mRNA levels. PKK mRNA levels were adjusted according to total RNA content, as measured by RIBOGREEN®. The antisense oligonucleotides were tested in a series of experiments that had similar culture conditions. Results are presented as percent inhibition of PKK, relative to untreated control cells.

The mark [1] stands for this setting: Table 3, HepaRG cells, electroporation with 3,000 nM antisense oligonucleotide, approx. 24 hours, PKK mRNA by RT-PCR (RTS3454).
Setting [2] is: Table 1, PKK mRNA, HepaRG cells, 3,000 nM, electroporation, ~24 h.
[3] abbreviates: Table 2, PKK mRNA, HepaRG cells, 3,000 nM, electroporation, ~24 h.
The mark [4] stands for this setting: Table 4, HepaRG cells, electroporation with 3,000 nM antisense oligonucleotide, approx. 24 hours, PKK mRNA by RT-PCR (RTS3454).

Strand notation (5' to 3'): a small letter for the sugar, then the base; units joined by * are phosphorothioate-linked, units joined directly phosphodiester-linked; [ ] holds rarer units or linkages, { } end groups; capitals alone tell only the bases. e = 2'-O-(2-methoxyethyl) (MOE); [5mC] = 5-methylcytosine; d = 2'-deoxy (DNA)

Experimental findings from patent US11840686B2, “Modulation of prekallikrein (PKK) expression” (Ionis Pharmaceuticals, Inc., priority 2013, dated 2023) are described below.

On to “531100 (e[5mC]*e[5mC]*e[5mC]*e[5mC]*e[5mC]*dT*d[5mC]*d[5mC]*d[5mC]*dT*dT*d[5mC]*d[5mC]*d[5mC]*dT*eA*e[5mC]*eA*e[5mC]*eA; antisense) [compound 531100]”, for which the “% inhibition” value under setting [1] turned out to be 0%.

Take “530981 (antisense eT*eT*e[5mC]*eT*eT*dT*dT*dG*d[5mC]*dA*dG*dG*dT*dT*dA*eA*eA*eA*eG*eG) [compound 530981]”: the “% inhibition” value under setting [2] is on record as 0%.

Consider “531152 (antisense eG*eT*eT*eA*eT*dG*dG*dA*dT*dA*dT*dA*dG*dA*d[5mC]*eT*eT*eT*eA*eA) [compound 531152]”, for which the “% inhibition” value under setting [1] was found to be 0%.

With “531148 (antisense eT*eA*e[5mC]*e[5mC]*e[5mC]*dA*dA*dA*dT*dT*dA*dT*dA*d[5mC]*d[5mC]*eT*eG*eG*eA*eA) [compound 531148]”, under setting [1], the “% inhibition” value was found to be 8%.

With “530949 (antisense eG*eG*eT*eG*eT*dA*d[5mC]*dA*dT*dG*dG*dA*dA*dG*d[5mC]*eT*eA*e[5mC]*eA*eT) [compound 530949]”, the “% inhibition” value under setting [2] is listed as 31%.

On to “531003 (eA*eA*e[5mC]*e[5mC]*eA*dG*dA*dG*d[5mC]*dT*d[5mC]*d[5mC]*d[5mC]*dT*dT*eG*eT*eG*eT*e[5mC]; antisense) [compound 531003]”, for which the “% inhibition” value under setting [2] turned out to be 49%.

With “531158 (antisense eA*e[5mC]*e[5mC]*eT*eT*dA*d[5mC]*dA*dA*dG*d[5mC]*dA*dT*d[5mC]*dT*eT*eT*eT*e[5mC]*e[5mC]) [compound 531158]”, the “% inhibition” value under setting [1] was 41%.

Take “531019 (eG*eT*eG*eA*eG*dG*dA*d[5mC]*d[5mC]*d[5mC]*dA*d[5mC]*dT*dG*dG*eT*eG*eT*e[5mC]*e[5mC]; antisense) [compound 531019]”: under setting [3], the “% inhibition” value is 28%.

Take “530985 (antisense eA*eA*eA*eT*eT*dT*dT*dA*dG*dA*dA*dT*dG*dG*d[5mC]*eA*eG*eG*eG*eT) [compound 530985]”: the “% inhibition” value under setting [2] came to 32%.

Take “531211 (eT*eT*eG*eA*eT*dG*dT*d[5mC]*dA*dG*d[5mC]*dA*d[5mC]*dT*dG*eT*eT*eG*eA*e[5mC]; antisense) [compound 531211]”: the “% inhibition” value under setting [4] is on record as 77%.

With “531115 (antisense eT*e[5mC]*e[5mC]*eT*eA*dA*dA*dT*dA*dG*dG*dA*dA*d[5mC]*dA*eA*eA*eG*eT*eA) [compound 531115]”, the “% inhibition” value under setting [1] came to 0%.

Turning to “531150 (antisense eT*e[5mC]*e[5mC]*eT*eT*dA*dA*dT*dA*dG*dT*d[5mC]*dA*dT*dA*eG*e[5mC]*eA*eG*eG) [compound 531150]”, under setting [1], the “% inhibition” value worked out at 48%.

Consider “531189 (eA*eG*eG*eT*eG*dT*dT*d[5mC]*dT*dT*dG*d[5mC]*dT*dT*dA*eT*e[5mC]*e[5mC]*eT*e[5mC]; antisense) [compound 531189]”, for which, under setting [4], the “% inhibition” value came to 63%.

In the case of “531205 (eA*e[5mC]*eA*eT*eT*dT*dT*dT*dT*dA*dA*dG*dT*dA*d[5mC]*eA*eG*eG*eA*eA; antisense) [compound 531205]”, under setting [4], the “% inhibition” value was 0%.

Turning to “531011 (e[5mC]*e[5mC]*eA*eA*eG*dA*dA*dG*dA*dG*dT*dT*dT*dG*dT*eT*e[5mC]*e[5mC]*eT*e[5mC]; antisense) [compound 531011]”, the “% inhibition” value under setting [3] is 0%.

For the substance “531127 (antisense e[5mC]*eA*eG*eA*eG*d[5mC]*d[5mC]*dT*dT*dG*dA*dT*d[5mC]*dA*dG*eA*eA*eT*eA*eA) [compound 531127]”, the “% inhibition” value under setting [1] is given as 12%.

Take “531049 (antisense eT*eT*eA*eT*eT*dT*dT*dA*dT*dA*dA*dT*d[5mC]*dT*dT*eG*eA*eT*eA*eT) [compound 531049]”: the “% inhibition” value under setting [3] came to 2%.

As for “531058 (antisense e[5mC]*e[5mC]*e[5mC]*eT*eT*dA*d[5mC]*dA*dA*dG*d[5mC]*dA*dT*d[5mC]*dT*eT*eT*eT*e[5mC]*e[5mC]) [compound 531058]”, under setting [3], the “% inhibition” value is 60%.

Consider “531107 (antisense eT*e[5mC]*eA*eA*e[5mC]*dT*d[5mC]*dA*d[5mC]*dA*d[5mC]*d[5mC]*dT*dG*dA*e[5mC]*e[5mC]*eT*eA*eA) [compound 531107]”, for which, under setting [1], the “% inhibition” value was 30%.

Turning to “531192 (eG*eA*eG*eT*eG*d[5mC]*d[5mC]*dA*dT*d[5mC]*dT*dT*d[5mC]*dT*d[5mC]*eT*eG*e[5mC]*eA*e[5mC]; antisense) [compound 531192]”, the “% inhibition” value under setting [4] is 61%.

In the case of “531065 (antisense e[5mC]*eT*eT*eT*eG*dG*dT*dG*dT*dA*dG*dA*d[5mC]*dA*d[5mC]*e[5mC]*eA*eG*eG*eT) [compound 531065]”, the “% inhibition” value under setting [3] was 57%.

On to “531076 (eA*e[5mC]*eT*e[5mC]*eT*d[5mC]*d[5mC]*dA*dT*dG*d[5mC]*dT*dT*dT*dG*e[5mC]*eA*eG*eA*eT; antisense) [compound 531076]”, for which the “% inhibition” value under setting [3] is reported as 68%.

In the case of “530986 (e[5mC]*eG*eG*eG*eT*dA*dA*dA*dT*dT*dT*dT*dA*dG*dA*eA*eT*eG*eG*e[5mC]; antisense) [compound 530986]”, under setting [2], the “% inhibition” value is reported as 62%.

Turning to “482586 (antisense eA*e[5mC]*e[5mC]*e[5mC]*eA*dA*d[5mC]*dA*dG*dT*dT*dG*dG*dT*dA*eT*eA*eA*eA*eT) [compound 482586]”, the “% inhibition” value under setting [3] worked out at 0%.

As to “531190 (eG*e[5mC]*eA*eG*eT*d[5mC]*dA*d[5mC]*dT*d[5mC]*d[5mC]*dT*d[5mC]*dT*dT*e[5mC]*e[5mC]*eA*eG*e[5mC]; antisense) [compound 531190]”, under setting [4], the “% inhibition” value was determined as 59%.

Take “531073 (e[5mC]*e[5mC]*e[5mC]*eA*eG*dG*d[5mC]*dT*d[5mC]*dA*dG*dA*dA*dT*dT*eT*eG*eA*e[5mC]*eT; antisense) [compound 531073]”: the “% inhibition” value under setting [3] was found to be 51%.

With “531057 (antisense e[5mC]*eA*eT*e[5mC]*eT*dT*dT*dT*d[5mC]*d[5mC]*d[5mC]*d[5mC]*d[5mC]*dT*dT*e[5mC]*eT*eT*eT*eA) [compound 531057]”, the “% inhibition” value under setting [3] is recorded as 48%.

As for “530961 (antisense eT*eT*eG*eG*e[5mC]*dA*dT*dT*d[5mC]*dT*dT*d[5mC]*dA*dA*d[5mC]*eA*e[5mC]*eT*eG*e[5mC]) [compound 530961]”, the “% inhibition” value under setting [2] came out at 88%.

On to “531052 (antisense eA*eG*eA*e[5mC]*e[5mC]*dA*dT*d[5mC]*d[5mC]*dG*dT*dT*dG*dG*dG*eT*eT*eA*eT*eT) [compound 531052]”, for which, under setting [3], the “% inhibition” value is 60%.

For the substance “531171 (antisense eA*eG*eG*e[5mC]*e[5mC]*dT*dG*d[5mC]*d[5mC]*dA*d[5mC]*dA*dG*dG*d[5mC]*e[5mC]*eA*eG*eA*e[5mC]) [compound 531171]”, the “% inhibition” value under setting [4] is 40%.

As for “531082 (eA*eT*eA*eT*eT*dG*dG*dT*dT*dT*dT*dT*dG*dG*dA*eA*eT*eT*e[5mC]*eT; antisense) [compound 531082]”, under setting [3], the “% inhibition” value is given as 31%.

For the substance “530975 (antisense eG*eT*eG*eT*eT*dT*dT*d[5mC]*dT*dT*dG*dA*dG*dG*dA*eG*eT*eA*eG*eA) [compound 530975]”, under setting [2], the “% inhibition” value was 41%.

Consider “530962 (antisense e[5mC]*e[5mC]*eT*eT*eT*dT*dT*dT*dG*dG*d[5mC]*dA*dT*dT*d[5mC]*eT*eT*e[5mC]*eA*eA) [compound 530962]”, for which the “% inhibition” value under setting [2] is on record as 64%.

Take “530972 (antisense eG*eT*eA*eG*eA*dG*dG*dA*dA*d[5mC]*dT*dT*dG*dG*dT*eG*eT*eG*e[5mC]*e[5mC]) [compound 530972]”: the “% inhibition” value under setting [2] is listed as 42%.

In the case of “530956 (antisense eA*e[5mC]*eA*e[5mC]*eT*dA*dT*d[5mC]*dT*dT*dT*d[5mC]*dA*dA*dG*eA*eA*eG*e[5mC]*eA) [compound 530956]”, the “% inhibition” value under setting [2] was 57%.

As to “530963 (antisense eT*eG*eG*eT*eG*d[5mC]*dA*d[5mC]*d[5mC]*dT*dT*dT*dT*dT*dT*eG*eG*e[5mC]*eA*eT) [compound 530963]”, the “% inhibition” value under setting [2] amounted to 78%.

For “531208 (eT*e[5mC]*e[5mC]*eA*eG*dA*dA*dT*dA*d[5mC]*dT*dG*d[5mC]*d[5mC]*d[5mC]*e[5mC]*eA*eT*e[5mC]*eT; antisense) [compound 531208]”, the “% inhibition” value under setting [4] was determined as 23%.

With “530931 (antisense e[5mC]*eT*eT*eA*eA*dA*dA*dA*dT*dG*dA*dA*d[5mC]*dG*dG*eT*e[5mC]*eT*eT*e[5mC]) [compound 530931]”, under setting [2], the “% inhibition” value was 29%.

With “530937 (antisense eT*eA*eA*eG*eT*dT*dG*d[5mC]*dT*dT*dG*d[5mC]*dT*dT*dG*eA*eA*eT*eA*eA) [compound 530937]”, the “% inhibition” value under setting [2] came to 0%.

Regarding “531228 (e[5mC]*eA*eG*eA*eG*dT*dA*dA*dA*d[5mC]*dT*d[5mC]*d[5mC]*d[5mC]*d[5mC]*eA*eT*e[5mC]*eT*e[5mC]; antisense) [compound 531228]”, the “% inhibition” value under setting [4] came to 33%.

By % inhibition is commonly meant how much of the control response was suppressed. Lower therefore signals a response near the control.
